Data on 17 compounds can be found in US20230019491A1, “PYRIMIDINE TBK/IKKe INHIBITOR COMPOUNDS AND USES THEREOF” (Merck Patent GmbH, priority 2017, published 2023).

The target of assay [1] is T1, IKKε (Homo sapiens, UniProt Q14164).
T1 sequence (Q14164 1-716): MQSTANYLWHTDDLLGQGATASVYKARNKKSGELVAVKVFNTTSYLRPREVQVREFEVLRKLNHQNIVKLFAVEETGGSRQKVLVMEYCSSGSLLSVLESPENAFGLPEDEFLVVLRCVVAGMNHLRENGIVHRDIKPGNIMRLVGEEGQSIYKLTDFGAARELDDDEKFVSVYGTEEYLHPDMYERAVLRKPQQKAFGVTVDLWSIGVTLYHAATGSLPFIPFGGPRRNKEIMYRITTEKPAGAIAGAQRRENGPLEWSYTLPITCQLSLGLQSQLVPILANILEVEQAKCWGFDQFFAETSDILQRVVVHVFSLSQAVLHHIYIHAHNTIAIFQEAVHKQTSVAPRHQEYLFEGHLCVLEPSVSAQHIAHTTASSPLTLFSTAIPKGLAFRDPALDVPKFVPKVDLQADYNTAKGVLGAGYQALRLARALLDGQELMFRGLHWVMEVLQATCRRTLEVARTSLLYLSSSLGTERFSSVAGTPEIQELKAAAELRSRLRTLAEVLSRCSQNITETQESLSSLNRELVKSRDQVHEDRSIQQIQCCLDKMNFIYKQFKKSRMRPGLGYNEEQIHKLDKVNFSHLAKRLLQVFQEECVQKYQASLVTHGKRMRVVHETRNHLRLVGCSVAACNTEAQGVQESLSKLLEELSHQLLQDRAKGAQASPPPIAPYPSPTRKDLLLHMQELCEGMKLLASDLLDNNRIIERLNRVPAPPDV
The assay can be described thus: IKKε biochemical assay. The note with it: 10 point 1:4 dose response, 30 uM top concentration, 90 min at 25° C., LabChip EZ Reader II; read-out: IKKε_IC50. As for the experimental part: (§1) Test compounds were transferred into Labcyte polypropylene 384 well plates (P055-25) and diluted to 3 mM using DMSO. […] 100 uM of a reference compound (1 uM final high concentration). Backfilling was performed if necessary so that all wells contain 1% DMSO final:
add 75 nl DMSO/well into columns 1, 2 and 24 using Labcyte Echo. add 75 nl 1.0 mM staurosporine/well into column 23 using Labcyte Echo (10 uM final) add 4.5 ul enzyme/well using multidrop dispenser add 3 ul substrate/well using multidrop dispenser incubate at 25° C. for 90 min. add 7.5 ul 2× stop buffer read on labchip ez reader II using IKKε.
(§2) Raw data files were opened in the Caliper LabChip Reviewer program (Version 3.0.265.0 SP2) and peak assignments were adjusted to reflect “substrate first” with the software's post-run analysis options. A spline-fit baseline was applied using the software's analysis algorithm.

For assay [2], the target named is T2, TBK1 (Homo sapiens, UniProt Q9UHD2).
T2 sequence (Q9UHD2 1-729): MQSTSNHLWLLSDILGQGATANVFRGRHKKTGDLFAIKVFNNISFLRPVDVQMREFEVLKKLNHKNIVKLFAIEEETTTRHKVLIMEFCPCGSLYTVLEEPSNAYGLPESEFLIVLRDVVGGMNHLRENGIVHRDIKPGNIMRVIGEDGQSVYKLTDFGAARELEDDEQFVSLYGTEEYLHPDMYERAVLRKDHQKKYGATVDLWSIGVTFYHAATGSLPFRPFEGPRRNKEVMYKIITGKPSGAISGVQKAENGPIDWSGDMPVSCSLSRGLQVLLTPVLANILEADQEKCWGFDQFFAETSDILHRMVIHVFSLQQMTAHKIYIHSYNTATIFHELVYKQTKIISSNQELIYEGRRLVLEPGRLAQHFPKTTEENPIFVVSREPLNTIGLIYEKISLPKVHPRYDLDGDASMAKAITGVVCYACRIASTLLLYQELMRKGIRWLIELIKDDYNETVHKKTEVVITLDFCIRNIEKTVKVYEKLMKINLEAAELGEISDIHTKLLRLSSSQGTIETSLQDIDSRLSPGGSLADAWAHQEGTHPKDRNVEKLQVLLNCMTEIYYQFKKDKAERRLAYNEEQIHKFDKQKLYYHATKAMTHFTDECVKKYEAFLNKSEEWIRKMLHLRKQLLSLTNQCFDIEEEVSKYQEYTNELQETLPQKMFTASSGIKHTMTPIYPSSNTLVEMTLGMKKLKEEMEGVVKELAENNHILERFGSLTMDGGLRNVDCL
As to the kind of experiment: TBK biochemical assay. The note with it: 10 point 1:4 dose response, 30 uM top concentration, 90 min at 25° C., LabChip EZ Reader II; read-out: TBK1_IC50. As for the experimental part: as §1
add 75 nl DMSO/well into columns 1, 2 and 24 using Labcyte Echo. add 75 nl 1.0 mM staurosporine/well into column 23 using Labcyte Echo ([…]) add 4.5 ul enzyme/well using multidrop dispenser add 3 ul substrate/well using multidrop dispenser incubate at 25° C. in Heidolph incubator for 90 min. add 7.5 ul 2× stop buffer using multidrop dispenser read on labchip ez reader II using TBK1.job
as §2

Where a name gives a salt, the structure may show the parent alone. Where only a bound is given, the exact number is not on record here.

In the case of `COc1nc(Nc2nccc(-c3ccc(OC4CCN(C(=O)[C@H](C)O)CC4C)c(C#N)c3)n2)ccc1N1CCN(C2COC2)CC1` (stereo partly drawn) [Example 271, 2-[1-((S)-2-Hydroxy-propionyl)-3-methyl-piperidin-4-yloxy]-5-{2-[6-methoxy-5-(4-oxetan-3-yl-piperazin-1-yl)-pyridin-2-ylamino]-pyrimidin-4-yl}-benzonitrile], the IC50 in assay [1] and in assay [2] was under 100 nM throughout.
`C[C@H](O)C(=O)N1CC(Oc2ccc(-c3ccnc(Nc4ccc(N5CCN(C6COC6)CC5)cc4)n3)cc2C#N)C1` [Example 172, 2-([1-[(2S)-2-hydroxypropanoyl]azetidin-3-yl]oxy)-5-[2-([4-[4-(oxetan-3-yl)piperazin-1-yl]phenyl]amino)pyrimidin-4-yl]benzonitrile]: the IC50 in assay [1] and in assay [2] was 100 to 1000 nM each time.
Turning to `COc1nc(Nc2nccc(-c3ccc(OC4CCN(C(=O)[C@H](C)O)CC4(F)F)c(C#N)c3)n2)ccc1N1CCN(C2COC2)C[C@H]1C` (stereo partly drawn) [Example 132, 2-[3,3-Difluoro-1-((S)-2-hydroxy-propionyl)-piperidin-4-yloxy]-5-{2-[6-methoxy-5-((R)-2-methyl-4-oxetan-3-yl-piperazin-1-yl)-pyridin-2-ylamino]-pyrimidin-4-yl}-benzonitrile], the IC50 in assay [1] and in assay [2] was under 100 nM throughout.
For the compound `COc1cc(C(=O)N(C)C)ncc1Nc1nccc(-c2ccc(OC3CCOCC3)c(C#N)c2)n1` [Example 47, 5-([4-[3-cyano-4-(oxan-4-yloxy)phenyl]pyrimidin-2-yl]amino)-4-methoxy-N,N-dimethylpyridine-2-carboxamide], the IC50 is 100 to 1000 nM in assay [1] and under 100 nM in assay [2].
With `COc1nc(Nc2nccc(-c3ccc(O[C@H]4CCN(C(=O)[C@H](C)O)CC4(F)F)c(C#N)c3)n2)ccc1N1CCN(C2COC2)[C@@H](C)C1` [Example 247, 2 2-[(S)-3,3-Difluoro-1-((S)-2-hydroxy-propionyl)-piperidin-4-yloxy]-5-{2-[6-methoxy-5-((S)-3-methyl-4-oxetan-3-yl-piperazin-1-yl)-pyridin-2-ylamino]-pyrimidin-4-yl}-benzonitrile], the IC50 in assay [1] and in assay [2] was under 100 nM throughout.
Regarding `COc1cc(C(=O)N(C)C)cnc1Nc1nccc(-c2ccc(NC3CCOCC3)c(C#N)c2)n1` [Example 60, 6-[(4-[3-cyano-4-[(oxan-4-yl)amino]phenyl]pyrimidin-2-yl)amino]-5-methoxy-N,N-dimethylpyridine-3-carboxamide], the IC50 in assay [1] and in assay [2] was over 5000 nM each time.
Regarding `COc1nc(C(=O)N(C)C)ccc1Nc1nccc(-c2ccc(NC3CCOCC3)c(C#N)c2)n1` [Example 62, 5-[(4-[3-cyano-4-[(oxan-4-yl)amino]phenyl]pyrimidin-2-yl)amino]-6-methoxy-N,N-dimethylpyridine-2-carboxamide], the values for the IC50 in assay [1] and in assay [2] were 100 to 1000 nM and under 100 nM, respectively.
For the compound `COc1nc(Nc2nccc(-c3ccc(OC4CCNCC4)c(C#N)c3)n2)ccc1N1CCN(C2COC2)CC1` [Example 185, 5-[2-({6-methoxy-5-[4-(oxetan-3-yl)piperazin-1-yl]pyridin-2-yl}amino)pyrimidin-4-yl]-2-(piperidin-4-yloxy)benzonitrile], the IC50 in assay [1] and in assay [2] was under 100 nM in each case.
As to `N#Cc1cc(-c2ccnc(Nc3cccc(C4CCN(C(CO)CO)CC4)c3)n2)ccc1OC1CCNCC1(F)F` (stereo not shown) [Example 156, 2-(3,3-Difluoro-piperidin-4-yloxy)-5-(2-{3-[1-(2-hydroxy-1-hydroxymethyl-ethyl)-piperidin-4-yl]-phenylamino}-pyrimidin-4-yl)-benzonitrile], the IC50 in assay [1] and in assay [2] was under 100 nM throughout.
With `COc1nc(Nc2nccc(-c3ccc(O[C@H]4CCN(C(=O)[C@H](C)O)C[C@@H]4F)c(C#N)c3)n2)ccc1N1CCN(C2COC2)CC1` [Example 196, 2-[(3S,4S)-3-Fluoro-1-((S)-2-hydroxy-propionyl)-piperidin-4-yloxy]-5-{2-[6-methoxy-5-(4-oxetan-3-yl-piperazin-1-yl)-pyridin-2-ylamino]-pyrimidin-4-yl}-benzonitrile], the IC50 in assay [1] and in assay [2] was under 100 nM each time.
For the compound `COc1cc(Nc2nccc(-c3ccc(OC4CCOCC4)c(C#N)c3)n2)ncc1N1CCN(C)CC1` [Example 53, 5-(2-[[4-methoxy-5-(4-methylpiperazin-1-yl)pyridin-2-yl]amino]pyrimidin-4-yl)-2-(oxan-4-yloxy)benzonitrile hydrochloride], the IC50 in assay [1] and in assay [2] was 100 to 1000 nM throughout.
For `CN1CCC(c2ccc(Nc3nccc(-c4ccc(OC5CCN(C(=O)CO)CC5(F)F)c(C#N)c4)n3)cc2)CC1` (stereo not shown) [Example 148, 2-[[3,3-difluoro-1-(2-hydroxyacetyl)piperidin-4-yl]oxy]-5-(2-[[4-(1-methylpiperidin-4-yl)phenyl]amino]pyrimidin-4-yl)benzonitrile], the IC50 in assay [1] and in assay [2] was under 100 nM each time.
Take `CN1CCN(c2ccc(Nc3nccc(-c4ccc(OC5CN(C)C5)c(C#N)c4)n3)nc2)CC1` [Example 81, 2-[(1-methylazetidin-3-yl)oxy]-5-(2-[[5-(4-methylpiperazin-1-yl)pyridin-2-yl]amino]pyrimidin-4-yl)benzonitrile]: the IC50 in assay [1] and in assay [2] was 1000 to 5000 nM in each case.
With `COc1nc(Nc2nccc(-c3ccc(OC4CCN(C)CC4)c(C#N)c3)n2)ccc1N1CCN(C)CC1` [Example 88, 5-(2-[[6-methoxy-5-(4-methylpiperazin-1-yl)pyridin-2-yl]amino]pyrimidin-4-yl)-2-[(1-methylpiperidin-4-yl)oxy]benzonitrile], the IC50 in assay [1] and in assay [2] was 100 to 1000 nM throughout.
Take `COc1nc(Nc2nccc(-c3ccc(OC4CCOCC4)c(C#N)c3)n2)ccc1N(C)CCN(C)C` [Example 34, 5-[2-[(5-[[2-(dimethylamino)ethyl](methyl)amino]-6-methoxypyridin-2-yl)amino]pyrimidin-4-yl]-2-(oxan-4-yloxy)benzonitrile hydrochloride]: the IC50 in assay [1] and in assay [2] was under 100 nM in each case.
For the compound `N#Cc1cc(-c2ccnc(Nc3ccc(N4CCN(C5COC5)CC4)cc3)n2)ccc1OC1COC1` [Example 159, 5-[2-([4-[4-(oxetan-3-yl)piperazin-1-yl]phenyl]amino)pyrimidin-4-yl]-2-(oxetan-3-yloxy)benzonitrile], the IC50 in assay [1] and in assay [2] was under 100 nM in each case.
On to `COc1nc(Nc2nccc(-c3ccc(OC4CCN(C(=O)[C@@H](C)O)CC4(F)F)c(C#N)c3)n2)ccc1C(=O)N(C)C` (stereo partly drawn) [Example 325, 6-([4-[3-cyano-4-([3,3-difluoro-1-[(2R)-2-hydroxypropanoyl]piperidin-4-yl]oxy)phenyl]pyrimidin-2-yl]amino)-2-methoxy-N,N-dimethylpyridine-3-carboxamide], for which the IC50 in assay [1] and in assay [2] was under 100 nM throughout.
